Data taken from article PMC7496275, “Pentathiepins: A Novel Class of Glutathione Peroxidase 1 Inhibitors that Induce Oxidative Stress, Loss of Mitochondrial Membrane Potential and Apoptosis in Human Cancer Cells” (Chemmedchem, 2020).
pIC50: −log10 of the molar value.

Assays:
bovine erythrocyte GPx = target: T1, bovine erythrocyte GPx (Bos taurus, UniProt P00435); assay: GPx enzyme activity assay (TBHP/GSH, GR/NADPH coupled); assay type: biochemical
T1 construct: 180 μL of a bovine erythrocyte GPx1 solution (0.125 U/mL); purchased Sigma Aldrich (Taufkirchen, Germany); host or cells: bovine erythrocytes
T1 sequence (P00435 1-205): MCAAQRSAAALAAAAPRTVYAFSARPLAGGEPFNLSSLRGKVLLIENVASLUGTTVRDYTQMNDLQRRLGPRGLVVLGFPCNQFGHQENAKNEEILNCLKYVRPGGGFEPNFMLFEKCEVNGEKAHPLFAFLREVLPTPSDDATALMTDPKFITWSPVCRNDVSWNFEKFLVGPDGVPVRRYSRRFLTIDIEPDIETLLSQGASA
Procedure: The ability of pentathiepins to inhibit the bovine erythrocyte GPx activity was assayed for by an established enzyme method, which is based on the GPx‐dependent reduction of tert‐butyl hydroperoxide (TBHP) by GSH, leading to the formation of GSSG, which is coupled to the reduction of GSSG back to GSH by glutathione reductase (GR) and the oxidation of NADPH to NADP^+[10] (Figure 1). Inhibition potencies of the compounds were ranked by their IC50 values; that is, concentration of the inhibitor at the inflection point in the sigmoidal log dose‐inhibition curve (Figure 4A), and are summarized for the pentathiepins and mercaptosuccinic acid (MSA) in Table 1.
GPx enzyme activity assay: To evaluate if the various compounds could inhibit GPx1, an enzymatic assay monitoring the activity of the bovine erythrocyte GPx was used as described previously.33 Bovine erythrocyte GPx is highly homologous to the human GPx1 (homology of 87 %)34 but much more affordable. In this assay, GPx reduces tert‐butylhydroperoxide (TBHP) followed by oxidation of glutathione (GSH) to the disulfide (GSSG), which in turn is regenerated to GSH by glutathione reductase (GR) with the consumption of NADPH. To each well of a UV‐transparent 96‐well plate were added 180 μL of a bovine erythrocyte GPx1 solution (0.125 U/mL) and 30 μL of prospective inhibitor in different concentrations diluted in DMF and incubated under shaking for 15 min at room temperature. Then 30 μL of stock solutions of GSH (2.5 mM) and baker's yeast GR plus NADPH (2 U/mL; 2.0 mM) were added. All stock solutions were prepared in potassium phosphate buffer (50 mM, pH 7.4, EDTA 1.1 mM, Triton‐X 0.01 %). The reaction was started by addition of TBHP solution (5 mM), giving final concentrations of 0.075 U/mL bovine erythrocyte GPx, 0.2 U/mL GR, 0.25 mM GSH, 0.2 mM NADPH and prospective inhibitor concentrations between 0.2–100 μM. The reaction was followed by the rate of decreasing absorption of the NADPH at λ=340 nm, measured every 15 s for ca. 20 min. The GPx activity related to untreated control was imported into the GraphPad Prism 6.0 software and the IC50 values were calculated by estimating the inflection point of the sigmoidal log concentration‐activity curves.

bovine GPx1 = target: T2, bovine GPx1 (Bos taurus, UniProt P00435); assay: Jump-dilution experiments for reversibility of GPx1 inhibition; assay type: biochemical; conditions: 30 min pre-incubation at 23 °C, 100-fold jump-dilution
T2 construct: 180 μL of a bovine erythrocyte GPx1 solution (0.125 U/mL); purchased Sigma Aldrich (Taufkirchen, Germany); host or cells: bovine erythrocytes
T2 sequence (P00435 1-205): T1 sequence (P00435 1-205)
Procedure: No difference in the inhibitory activity of 4 after jump‐dilution (Figure 4B left, a) was observed compared to expected inhibition at 0.25 μM (Figure 4B left, 0.25 μM), evidence that GPx1 inhibition is reversible. […] This is consistent with findings that MSA can act as an irreversible inhibitor of GPx1.11 In further jump‐dilution experiments, we pre‐incubated both inhibitors with the assay concentrations of either GSH and TBHP (a, d) or GSH only (b, e), with (a–c) and without (d–f) GPx1 for 30 min.
The jump‐dilution experiments were carried out in a 96‐well plates at room temperature. To each well was added 75 μL of a 20 IU mL^−1 GPx stock‐solution followed by the addition of 3 μL of a 2.5 mM solution of 4 in DMF and 30 μL of a 2.5 mM solution of GSH in buffer or 30 μL of a 2.5 mM solution of GSH in buffer and 30 μL of a 5 mM solution of TBHP in water and 300 μL buffer. The plates were shaken for 30 min in the dark, then each well was diluted 100 fold into a second plate prepared for the GPx‐assay. The enzyme activity was immediately measured as described above.

Gumbus cells = assay: Western blot analysis of PARP cleavage; assay type: cell-based, human; conditions: multiple IC50 concentrations, 6 h
Procedure: (§1) Another method for detecting caspase dependent apoptosis is to measure the cleavage of the enzyme poly‐(ADP‐ribose)‐polymerase (PARP) by western blotting. After an apoptotic stimulus, caspases, e. g. caspase‐3 and caspase‐7, cleave PARP, resulting in a loss of its function to mediate DNA‐repair processes. Cells were incubated with multiple IC50 concentrations of 4 for 6 and 24 h. […] Thus, pentathiepin 4 appears to induce the caspase dependent induction of apoptosis.
(§2) Western blot analysis of PARP: For western blot analysis the Biorad system with “Mini‐Protean® TGX Stain‐Fee™ Gels” and “Trans‐Blot® Turbo™ Transfer Pack Mini” PVDF‐membranes were used (Biorad, Germany). Protein lysates for analysis were prepared by seeding out 10^6 cells into T25 flasks and incubated with 4 in multiple concentrations of the viability IC50 for 6 and 24 h. […] Lysates were centrifuged at 18 000 g for 10 min at 4 °C and protein content was determined by the Bradford method against bovine serum albumin (BSA) as standard. […] Protein bands were detected with Clarity™ Western ECL Substrate (Biorad) and recorded by an Advanced Fluorescence Imager (INTAS, Germany).

HL-60 cells = assay: Western blot analysis of PARP cleavage; assay type: cell-based, human; conditions: multiple IC50 concentrations, 6 h
Procedure: as §1, §2

pIC50 (bovine erythrocyte GPx; 23 °C, n>3, 0.25 mM GSH, read-out: Enzyme inhibition IC50 (CI 95 %)): 5.61 | potency at inhibiting GPx1 compared to MSA (bovine erythrocyte GPx; ratio of IC50 values): twice as potent as MSA | reversibility of GPx1 inhibition (bovine GPx1): reversible
Compound: CCOc1c2c(c3cnc4cc(C)c(C)cc4n13)SSSSS2 [Compound 4]
PARP cleavage (Gumbus cells): cleavage of PARP was detectable | PARP cleavage (HL-60 cells): cleavage of PARP was detectable
